The values below are quoted from earlier work in patent publication US20060052437A1, “Combination of an hmg-coa reductase inhibitor and a nitrate ester” (priority 2002, published 2006).

The conditions of series [1]: compared to aspirin.
The conditions of series [2]: at withdrawal from the market, August 2001.

Consider `CC(=O)Oc1ccccc1C(=O)Oc1cccc(CO[N+](=O)[O-])c1` [NCX-4016, 2-acetyloxy-benzoic acid 3-nitroxymethyl-phenyl ester], for which the “toxicity at gastric level” value in series [1] is recorded as “not toxic at gastric level”.

`COCc1c(C(C)C)nc(C(C)C)c(/C=C/[C@@H](O)C[C@@H](O)CC(=O)O)c1-c1ccc(F)cc1` [cerivastatin]: the “deaths attributable to rhabdomyolysis” value in series [2] is reported as 52 deaths.
